Test results as given in US20080305111A1, “Anti-C35 antibodies for treating cancer” (VACCINEX, INC., priority 2006, published 2008).
Where two headings read alike, the source gives them in different places.

How the values were obtained:
[1] = system: rabbit anti-human C35 polyclonal antibody; test: ELISA of rabbit C35 immune serum on plates coated with C35 15-mer peptides; type: binding
Colau.C35 tumor cells = test: Combination radioimmunotherapy and chemotherapy, second experiment (FIG. 6, Table 6); type: in vivo, Swiss nude mice
Experimental: Swiss nude mice were grafted with Colau.C35 cells on day 0. Chemotherapy: Cisplatin administered at 2 mg/kg i.v. on days 15 & 18; 5FU/LV administered at 180/120 mg/kg i.v. on day 18.
Cispaltin was administered on days 15 and 18 following tumor graft. […] Tumor growth was followed for up to 10 weeks.

[2] = cited from earlier work
21MT1 tumor cells = test: C35 surface staining following drug induced apoptosis (flow cytometry); type: cell-based
Experimental: 24 hours following treatment with 0.5 uM Taxol™, 21MT1 tumor cells were stained with annexin V-FITC, propidium iodide, and with either 100 ng anti-C35 antibody 1F2 (dark line) or isotype control (grey fill) antibody. Both antibodies were directly conjugated to Alexa-647. Histograms were gated on the cells undergoing apoptosis (annexinV positive/PI negative). Antibodies were pre-incubated with PAB buffer (FIG. 3A), 100-fold molar excess recombinant C35 protein (FIG. 3B), or 100-fold molar excess β-galactosidase protein (FIG. 3C).
A line of continuously growing breast tumor cells that express the C35 tumor antigen was either treated with 6 ug/ml mitomycin C or left untreated. After continued in vitro culture for 48 hours to allow apoptosis to develop, cells were harvested, washed and stained with 50 ng of 1F2 monoclonal anti-C35 antibody or a mouse IgG antibody control each conjugated to the fluorescent dye Alexa 647. Following 50 minutes incubation at 25° C., cells were stained with Annexin V and propidium iodide (PI) using a standard commercial kit (Pharmingen). Cells were analyzed for staining with Annexin V, propidium iodide and Alexa 647 by flow cytometry employing standard protocols.

[3] = Toxicity of chemotherapy, radioimmunotherapy and combination therapy by weight loss (FIG. 8); design: species or system Swiss nude mice; details: Swiss nude, mouse, in vivo, intravenous; together with Leucovorin at 120 mg/kg
[4] = 14 μg/ml peptide coated plates, 100 ng/ml primary antibody
[5] = 40 μg/ml peptide coated plates, 1 μg/ml primary antibody
[6] = literature values, schedule as in table
[7] = non-toxic dose at indicated schedule (dose of column Dose + RIT)

Compound	Absorbance @ 450-570 nm [1, 4]	Absorbance @ 450-570 nm [1, 5]	other results
LIEAIRRASNGETLE [P89]	0.015	0.053	–
RASNGETLEKITNSR [P95]	0.062	0.462	–
FPYEKDLIEAIRRAS [P83]	0.025	0.19	–
PGQTSVAPPPEEVEP [P5]	2.719	3.383	–
PYEKDLIEAIRRASN [P84]	0.037	0.391	–
GGFPYEKDLIEAIRR [P81]	0.032	0.204	–
EPGQTSVAPPPEEVE [P4]	1.254	3.282	–
MSGEPGQTSVAPPPE [P1]	0.257	–	–
PEEVEPGSGVRIVVE [P14]	0.127	0.972	–
N.N.[Cl][Pt][Cl] [Cisplatin]	–	–	TDD = Tumor doubling delay (Colau.C35 tumor cells; T − C/tumor volume doubling time of untreated): 0.66; LCK = Log Cell Kill (Colau.C35 tumor cells; TDD/3.32): 0.20; Colau.C35 tumor growth (FIG. 6) (Colau.C35 tumor cells; cisplatin 2 mg/kg days 15, 18, 5FU/LV 180/120 mg/kg day 18, 300 μCi ^131I-1B3 day 21): some inhibition; T − C: difference in time for treated and control tumors to reach a given volume (Colau.C35 tumor cells; volume 1200 mm^3): 5 days; Maximum Tolerated Dose [2, 6]: 4 mg/kg
Nc1ccn([C@@H]2O[C@H](CO)[C@@H](O)C2(F)F)c(=O)n1 [Gemcitabine]	–	–	Maximum Tolerated Dose [2, 7]: No toxicity ^5
VAPPPEEVEPGSGVR [P10]	1.736	3.407	–
SVAPPPEEVEPGSGV [P9]	2.31	3.367	–
O=C1[O][Pt]2([NH][C@@H]3CCCC[C@H]3[NH]2)[O]C1=O [Oxaliplatin]	–	–	Maximum Tolerated Dose [2, 6]: 5 mg/kg
CC(=O)O[C@H]1C(=O)[C@@]2(C)[C@H]([C@H](OC(=O)c3ccccc3)[C@]3(O)C[C@H](OC(=O)[C@H](O)[C@@H](NC(=O)c4ccccc4)c4ccccc4)C(C)=C1C3(C)C)[C@]1(OC(C)=O)CO[C@@H]1C[C@@H]2O [Taxol, paclitaxel]	–	–	induction of apoptosis and C35 surface exposure (21MT1 tumor cells; 0.5 uM, 24 hours, stained with 1F2): induces apoptosis, resulting in exposure of C35 on the surface of apoptotic tumor cells; Maximum Tolerated Dose [2, 7]: No toxicity ^2
GEPGQTSVAPPPEEV [P3]	1.458	3.349	–
NGGFPYEKDLIEAIR [P80]	0.018	0.1	–
GQTSVAPPPEEVEPG [P6]	2.483	3.381	–
CO[C@@]12[C@H](COC(N)=O)C3=C(C(=O)C(C)=C(N)C3=O)N1C[C@@H]1N[C@@H]12 [mitomycin C]	–	–	C35 surface staining of treated cells undergoing apoptosis (21MT1 tumor cells; 6 ug/ml, 48 hours, PI negative, Annexin V positive cells): clearly differentially stained with anti-C35 antibodies as compared to isotype control antibody
O=P1(N(CCCl)CCCl)NCCCO1 (centres unmarked) [Cyclophosphamide]	–	–	Maximum Tolerated Dose [2, 7]: No toxicity ^2
PPPEEVEPGSGVRIV [P12]	0.836	–	–
YEKDLIEAIRRASNG [P85]	0.024	0.179	–
NGETLEKITNSRPPA [P98]	0.035	0.213	–
DLIEAIRRASNGETL [P88]	0.025	0.135	–

Compound	Absorbance @ 450-570 nm [1, 4]	Absorbance @ 450-570 nm [1, 5]	other results
EKDLIEAIRRASNGE [P86]	0.023	0.166	–
APPPEEVEPGSGVRI [P11]	1.526	3.317	–
ETLEKITNSRPPAVI [P100]	0.017	0.124	–
GFPYEKDLIEAIRRA [P82]	0.02	0.18	–
GAFEIEINGQLVFSK [P63]	0.079	0.557	–
PPEEVEPGSGVRIVV [P13]	0.385	2.522	–
IEAIRRASNGETLEK [P90]	0.04	0.403	–
QTSVAPPPEEVEPGS [P7]	2.635	3.388	–
O=c1[nH]cc(F)c(=O)[nH]1 [5-FluoroUracil]	–	–	MTD [3]: 180 mg/kg
AIRRASNGETLEKIT [P92]	0.04	0.267	–
GETLEKITNSRPPAV [P99]	0.026	0.18	–
TGAFEIEINGQLVFS [P62]	0.023	0.107	–
IRRASNGETLEKITN [P93]	0.051	0.389	–
FEIEINGQLVFSKLE [P65]	0.043	0.269	–
TLEKITNSRPPAVIL [P101]	0.472	2.519	–
EAIRRASNGETLEKI [P91]	0.023	0.144	–
RRASNGETLEKITNS [P94]	0.061	0.526	–
TSVAPPPEEVEPGSG [P8]	0.059	0.394	–
EEVEPGSGVRIVVEY [P15]	0.039	0.334	–
AFEIEINGQLVFSKL [P64]	0.055	0.423	–
SGEPGQTSVAPPPEE [P2]	0.108	1.227	–
EVEPGSGVRIVVEYA [P16]	0.027	0.172	–
SNGETLEKITNSRPP [P97]	0.046	0.373	–
EIEINGQLVFSKLEN [P66]	0.028	0.182	–
